# Laboratory results reported in publication PMC8834644, “Effect of FKBP12-Derived Intracellular Peptides on Rapamycin-Induced FKBP–FRB Interaction and Autophagy” (Cells, 2022).
# Tests used:
# [1] = tested on: thimet oligopeptidase and CaM; settings: in vitro surface plasmon resonance; cited from earlier work
# [2] = tested on: rapamycin-induced FKBP–FRB interaction within HEK293 cells; test: NanoBiT luciferase structural complementation assay of rapamycin-induced FKBP–FRB interaction; type: cell-based, human; settings: HEK293 co-transfected with FRB-LgBit and FKBP-SmBiT, 200 nM rapamycin, RLU for 60 min, qualitative; for peptide concentration inhibiting rapamycin-induced FKBP–FRB interaction: peptide added with rapamycin plus booster after 30 min, at least five determinations in triplicates
# Method: The protein complementation assay technology used herein, NanoBiT® (Promega, Madison, WI, USA), was commercially designed to investigate inducible PPI under in vivo cellular conditions, allowing the analyses of distinctive molecules that, introduced within cells, can modify inducible PPI [58]. All experimental procedures were performed according to the manufacturer’s recommendations. Briefly, transient transfections were performed with NanoBiT® PPI Control Pair FKBP–FRB (Promega, Madison, WI, USA; catalog number N2016), containing the FRB-LgBit and FKBP-SmBiT vectors (NanoBiT® PPI Control Pair FKBP, FRB; catalog number N2016, Promega, Madison, WI, USA). Plasmids were co-transfected into HEK293 cells using FuGENE® 6 Transfection Reagent (Promega, Madison, WI, USA), according to the recommendations of the manufacturers. Cells transfected in the absence of DNA were the negative controls of the experiments, whereas the green fluorescent protein expressing pEGFP plasmid (Clontech, Mountain View, CA, USA; 100 ng) was used to evaluate transfections efficiencies; after 30 h of transfection, the pEGFP expression was easily assessed by fluorescent microscopy (data not shown).
# HEK293 cells (approximately 10^4) cultured in a 96-well plate in DMEM high-glucose medium, supplemented with 10% FBS and 1% penicillin/streptomycin, were transiently co-transfected with 200 ng of both […] and FKBP-SmBiT vectors (NanoBiT® PPI Control Pair FKBP, FRB; catalog number N2016, Promega, Madison, WI, USA); this final plasmid concentration of 200 ng was defined previously testing different plasmid concentrations, as shown in Supplemental Figure S1A. The transfected cells were incubated in Opti-MEM® I Reduced Serum Medium culture medium (Gibco, Gaithersburg, MD, USA) for 2 h and then treated with 200 nM of rapamycin (BPSBioscience, CAS 53123-88-9, San Diego, CA, USA) diluted in Opti-MEM®/0.01% DMSO (Gibco, Gaithersburg, MD, USA; this rapamycin concentration of 200 nM was defined previously testing different concentrations, as shown in Supplemental Figure S1B). […] Graphs of RLU versus time were plotted by GraphPad Prism (GraphPad, San Diego, CA, USA). Control experiments were conducted using VFD10 and VFD7 without cpp covalently bound, in addition to cpp alone (Supplemental Figure S2).
# [3] = tested on: PPI between cytosolic brain proteins and calmodulin (CaM); settings: surface plasmon resonance; cited from earlier work
# Method: (§1) VFD10 and VFD7 (10–50 µM) were shown by surface plasmon resonance to inhibit PPI between cytosolic brain proteins and both calmodulin (CaM) and 14-3-3 epsilon. VFD7 (5–20 µM) introduced into the HEK293 cells by means of transient membra ...
# HEK293 cells = settings: introduced into HEK293 cells by transient membrane permeabilization with CHAPS; cited from earlier work
# Method: as §1
# [4] = tested on: PPI between cytosolic brain proteins and 14-3-3 epsilon; settings: surface plasmon resonance; cited from earlier work
# Method: as §1
# [5] = tested on: autophagy-deficient Atg5^−/− MEF cells; test: Cell viability (MTT) after hypoxia-reoxygenation, Atg5-/- MEF; type: cell-based, mouse; settings: 1 µM peptide from 30 min before ischemia with boosters, 3 h hypoxia, 3 h reoxygenation; n = 3 independent experiments
# Method: (§2) These experiments were performed to evaluate the possible pharmacological application of VFD7-cpp and additional selected peptides on cell viability, following an ischemic challenge. These experiments also contributed to investigate the possible biological significance of InPeps for cell viability following hypoxia-reoxygenation. Therefore, herein the effect of peptides was evaluated in wild type mouse embryonic fibroblasts cells (MEF) expressing Atg5 (Atg5^+/+) and in the MEF missing autophagy pathway due to the lack of Atg5 (Atg5^−/−); Atg5 is indispensable in both canonical and non-canonical autophagy. Atg5^+/+ and Atg5^−/− MEF were cultured in a 96-well plate in DMEM high-glucose medium supplemented with 10% FBS and 1% penicillin/streptomycin, as previously described. […] After the protocol, cell viability was measured by using tetrazolium salt 3-(4,5-Dimethylthiazol 2-yl)-2,5-diphenyltetrazolium bromide (MTT) assay; these assays measure the mitochondrial metabolic rate and indirectly reflect the viable cell numbers, which are the most commonly used method to evaluate the effect of compounds on cell viability on cultured cells. […]
# [6] = tested on: Atg5^+/+ mouse embryonic fibroblasts cells (MEF); test: Cell viability (MTT) after hypoxia-reoxygenation, Atg5+/+ MEF; type: cell-based; settings: 1 µM peptide from 30 min before ischemia with boosters, 3 h hypoxia, 3 h reoxygenation; n = 3 independent experiments; vs. cpp
# Method: as §2
# [7] = after 30 min of internalization into Chinese hamster ovarian cells; random control peptide; cited from earlier work
# Method: Hundreds of InPeps have been described from the most diverse sources, including plants, yeast, fish, and mammals. Despite of the strong evidence that InPeps are natural constituents of the cells, the expected short half-life of peptides within cells full of peptidases contests their stability and biological significance. […] For example, after 30 min of internalization into Chinese hamster ovarian cells, the ...
substance,measurement,setting,value
"VFDVELL [VFD7, InPep VFDVELL derived from FKBP12]",effect on thimet oligopeptidase–CaM interaction (in words),[1],inhibits the interaction but does not disrupt the association
same,effect on rapamycin-induced FKBP–FRB interaction (in words),[2],have no effect
same,peptide concentration shown to inhibit PPI with calmodulin,[3],10 to 50 µM
same,peptide concentration shown to increase cytosolic Ca2+ concentrations,HEK293 cells,5 to 20 µM
same,peptide concentration shown to inhibit PPI with 14-3-3 epsilon,[4],10 to 50 µM
"FDVELLYGRKKKRRQRRR [VFD6-cpp, FDVELL (VFD6) covalently coupled to cpp]",cell viability after hypoxia-reoxygenation (MTT),[5],but not on autophagy-deficient Atg5^−/− MEF cells
same,cell viability after hypoxia-reoxygenation (MTT),[6],increase cell viability
same,peptide concentration inhibiting rapamycin-induced FKBP–FRB interaction,[2],1 to 500 nM
"VFDVELLKLEYGRKKKRRQRRR [VFD10-cpp, VFD10 covalently coupled to cpp at C-terminus]",effect on rapamycin-induced FKBP–FRB interaction (in words),[2],unable to alter rapamycin-induced FKBP–FRB interactions
"EVELLYGRKKKRRQRRR [EVE5-cpp, derived from VFD5-cpp, D to E]",effect on rapamycin-induced FKBP–FRB interaction (in words),[2],unable to alter rapamycin-induced FKBP–FRB interactions
"VFAVELLYGRKKKRRQRRR [VFA7-cpp, VFD7-cpp with D substituted to A]",effect on rapamycin-induced FKBP–FRB interaction (in words),[2],unable to alter rapamycin-induced FKBP–FRB interactions
"YGRKKKRRQRRR [cpp, cell-penetrating peptide used alone as control, reference compound]",effect on rapamycin-induced FKBP–FRB interaction (in words),[2],have no effect
"VELLYGRKKRRQRRR [VFD4-cpp, N-terminally shortened VFD7-cpp derivative]",effect on rapamycin-induced FKBP–FRB interaction (in words),[2],reduced potencies compared to VFD6-cpp or VFD7-cpp
same,peptide concentration inhibiting rapamycin-induced FKBP–FRB interaction,[2],500 nM
VNMVPVGWASFR [random peptide used as the control in an earlier study],peptide recovered after internalization,[7],100%
"VFEVELLYGRKKKRRQRRR [VFE7-cpp, VFD7-cpp with D substituted to E]",effect on rapamycin-induced FKBP–FRB interaction (in words),[2],unable to alter rapamycin-induced FKBP–FRB interactions
"VFDVELLKLE [VFD10, InPep … derived from FKBP12]",effect on rapamycin-induced FKBP–FRB interaction (in words),[2],have no effect
same,peptide concentration shown to inhibit PPI with calmodulin,[3],10 to 50 µM
same,peptide concentration shown to inhibit PPI with 14-3-3 epsilon,[4],10 to 50 µM
"AVELLYGRKKKRRQRRR [AVE5-cpp, derived from VFD5-cpp, D to A]",effect on rapamycin-induced FKBP–FRB interaction (in words),[2],unable to alter rapamycin-induced FKBP–FRB interactions
"DVELLYGRKKRRQRRR [VFD5-cpp, N-terminally shortened VFD7-cpp derivative]",effect on rapamycin-induced FKBP–FRB interaction (in words),[2],reduced potencies compared to VFD6-cpp or VFD7-cpp
same,peptide concentration inhibiting rapamycin-induced FKBP–FRB interaction,[2],500 nM
